# Laboratory results published in patent US6759241B1, “Adjuvant comprising a lipopolysaccharide antagonist” (priority 1999, dated 2004).
# Where no end group is shown, it is not given here.
# Key:
# BALB/c mice [1] = assay: Adjuvant activity with peptide antigen Hep-Tat: Hep-Tat-specific serum IgG by ELISA; type: in vivo
# Experimental: Vaccine preparations containing a peptide antigen and an LPS antagonist were prepared in the following manner. Each vaccine preparation contained […] of the vaccine peptide (herein designated “Hep-Tat”) that corresponds to the heparin-binding domain of the HIV-1 regulatory protein Tat and is comprised of the following sequence (GLGIS YGRKKRRQR; SEQ ID NO: 1). The peptide antigen was prepared synthetically as a Multiple Antigen Peptide (MAPS;Genosys). To formulate the preparations comprised of Hep-Tat and LPS antagonist (purified as outlined above), […] of Hep-Tat was combined with a range of LPS antagonist doses (from […]). The LPS antagonist was isolated from MLK986 cultured at 37° C. as described in. Example 1.
# Groups of three BAL Blc mice were injected intraperitoneally with a single dose of a given preparation of Hep-Tat and LPS antagonist (i.e., primary vaccination). To determine the immunogenicity of the antigen in the absence of LPS antagonist, a group of BALB/c mice were vaccinated with 50 μg Hep-Tat formulated-alone. For comparative purposes, an additional group of mice was vaccinated with 50 μg Hep-Tat formulated with Alum, as described (Coligan, et al., 1994, supra).
# To measure the immunogenicity of each formulation, venous blood was collected from the mice in each group before and on day 14 after primary vaccination, as described (Coligan, et al., 1994, supra). Serum was then obtained from each of these blood samples using standard techniques (Coligan, et al., 1994, supra). On day 21 after the primary vaccination, mice were given a booster vaccination containing the same dose of Hep-Tat and LPS antagonist or alum as was given in the primary vaccination. Seven days after the boost, venous blood was collected from the mice in each, and sera were obtained as outlined above. Each of the serum samples from individual groups were pooled and the level of Hep-Tat-specific IgG was ascertained by ELISA. In short, plastic 96 well ELISA plates (Immunol 2 Dynatech) were coated with Hep-Tat, by adding […] of Hep-Tat at 10 μg/ml suspended in PBS (Phosphate Buffer Saline) pH 7.4 in each well, and incubating overnight at 4° C. The plates were subsequently washed to remove unbound peptide and then 100 μl of blocking solution (comprised of 1% (w/v) Bovine Serum Albumin (BSA; Sigma) suspended in PBS) was added to each well. […] The result of the ELISA were obtained by reading the optical density of each well using a Molecular Dynamics ELISA plate reader. […]
# [2] = system: human peripheral blood mononuclear cells (PBMCs); assay: LPS antagonist activity: TNFα secretion by stimulated human PBMCs (capture ELISA); type: cell-based; conditions: 1 μg/ml + W3110 (10 ng/ml), 8 hr
# Experimental: W3110 LPS (also cultured at 37° C.) from 1 ng/ml to 100 ng/ml alone and W3110 LPS (10 ng/ml) mixed with synthetic lipid IVA (1 μg/ml) were used as controls. For this, PBMCs were obtained from 50 ml of whole blood and resuspended in complete medium (CM; RPMI containing pyruvate, glutamine, PenStrep, and 10% endotoxin-free human AB serum (Life Technologies) at a density of 6×10^6 PBMCs/ml. CM containing W3110 LPS, MLK986 LPS or synthetic lipid IVA was placed into duplicate wells of a 96-well flat bottom culture plate (Costar) at double the target final concentration. An equal volume of CM containing the PBMCs then was added to these wells and the culture plates were incubated at 37° C. in 5% CO2 for 8 hr. The supernatants were then removed and stored at […] Quantitation of TNFα, IL-1β, and IL-6 in these culture supernatants was achieved by capture ELISA (R&D Systems).
# BALB/c mice [3] = assay: Adjuvant activity with protein antigen gp120: anti-gp120 serum IgG by ELISA; type: in vivo
# Experimental: Vaccine preparations containing an LPS antagonist and a protein antigen can be prepared in the following manner. Each vaccine preparation contained 5 μg of fully glycosylated endotoxia-free HIV-1MN gp120 (Virostat Cat. No. 8919, Lot AM735). Preparations comprised of gp120 and LPS antagonist were formulated essentially as outlined in Example 2 above except that each dose contained 5 μg of gp120 combined with a range of LPS antagonist doses (from 1 μg to 10 μg). The LPS antagonist was isolated from MLK986 cultured at 37° C. as described above.
# Groups of 3 BALB/c mice were given a single dose of a given preparation of gp120 and LPS antagonist subcutaneously (primary vaccination). To determine the immunogenicity of the antigen in the absence of LPS antagonist, a group of BALB/c mice were vaccinated with 5 μg gp 120 formulated alone. For comparative purposes, an additional group of mice were vaccinated with 5 μg of gp120 formulated with Alum, as described (Coligan, et al., 1994, supra).
# To measure the immunogenicity of each formulation, sera were collected from the mice in each group before and on day 14 after primary vaccination, as described in Example 2 above. On day 21 after the primary vaccination, mice were given a booster vaccination containing […] of gp120 formulated with matched doses of LPS antagonist, as was given in the primary vaccination. Ten and 17 days after the boost, venous blood was collected from the mice, and sera were obtained as outlined above. The level of anti-gp120 IgG in pooled serum samples was determined by ELISA as described in Example 2 above, except that gp120 was used in place of Hep-Tat in the first coating step. The results of the ELISA were obtained by reading the optical density of each well using a Molecular Dynamics ELISA plate reader and are shown in Table 3 below. The data are presented as dilution of the sera to achieve 50% saturation.
# [4] = Pre (before primary vaccination), pooled sera
molecule,measurement,setting,value
"Hep-Tat: vaccine peptide, heparin-binding domain of HIV-1 Tat (GLGIS YGRKKRRQR; SEQ ID NO: 1), Multiple Antigen Peptide (GLGISYGRKKRRQR; also: multiple antigen peptide format)","Tat-specific antibodies (Hep-Tat-specific IgG), dilution of the sera to achieve the 50% saturation","BALB/c mice [1]; 50 μg Hep-Tat alone, intraperitoneal, boosted, Day 21",<10
same,"Tat-specific antibodies (Hep-Tat-specific IgG), dilution of the sera to achieve the 50% saturation","BALB/c mice [1]; 50 μg Hep-Tat alone, intraperitoneal, Day 14",<10
same,immunogenicity of the antigen dose,"BALB/c mice [1]; 50 μg of Hep-Tat formulated with Alum (Pierce), preliminary experiments",marginally immunogenic
same,"Tat-specific antibodies (Hep-Tat-specific IgG), dilution of the sera to achieve the 50% saturation",BALB/c mice [1]; [4],<10
CCCCCCCCCCC[C@@H](O)CC(=O)N[C@H]1[C@H](OC[C@H]2O[C@H](OP(=O)(O)O)[C@H](NC(=O)C[C@H](O)CCCCCCCCCCC)[C@@H](OC(=O)C[C@H](O)CCCCCCCCCCC)[C@@H]2O)O[C@H](CO)[C@@H](OP(=O)(O)O)[C@@H]1OC(=O)C[C@H](O)CCCCCCCCCCC [Lipid IVA],TNFa,[2],<30 pg/mL
Gp120: fully glycosylated endotoxin-free HIV-1MN gp120 (Virostat Cat. No. 8919),"Gp120-specific serum antibodies (anti-gp120 IgG), dilution of the sera to achieve 50% saturation","BALB/c mice [3]; 5 μg gp120 alone, subcutaneous, Day 14",<10
same,immunogenicity of the antigen dose,"BALB/c mice [3]; 5 μg of gp120 formulated with Alum, preliminary experiments",marginally immunogenic
same,"Gp120-specific serum antibodies (anti-gp120 IgG), dilution of the sera to achieve 50% saturation",BALB/c mice [3]; [4],−10
same,"Gp120-specific serum antibodies (anti-gp120 IgG), dilution of the sera to achieve 50% saturation","BALB/c mice [3]; gp120 alone, subcutaneous, boosted, Day 21",<10
